Experimental data taken from publication PMC5078989, “Targeted inhibition of the COP9 signalosome for treatment of cancer” (Nature Communications, 2016).
pEC50: −log10 of the molar value.

System: panel of cancer cell lines
Experiment: Cell viability (CellTiter-Glo) dose-response across cancer cell line panel;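 for pEC50: after 72 h compound incubation with CellTiter-Glo ATP readout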
Assay type: cell-based, human
Details: for pEC50: Homo sapiens
From the text: Next, we explored the effect of CSN5 inhibition on the viability of cancer cells. To obtain a comprehensive picture, we generated dose–response curves with a CSN5 inhibitor across more than 500 cancer cell lines in a previously described standardized setting[47] (Supplementary Data 1).
A standardized CellTiter-Glo Assay (Promega #G7570) based on the quantification of ATP was applied according to the manufacturer's protocol to measure the amount of viable cells in culture. In brief, cells were seeded into 384-well plates at optimal density for each cell line. After 4 h, compounds were added at different concentrations in growth medium and incubated for another 72 h in a humidifying chamber at 37 °C and 5% CO2. […] EC50 values were calculated from the plot of percentage of inhibition versus inhibitor concentration using the nonlinear regression analysis software Origin 7.5SR6 (OriginLab Corp.).

COCc1ccccc1NCc1ccc([C@H]2[C@@H](O)CCCc3cncn32)c(-c2ccccc2Cl)c1 [CSN5i-2, (5S,6S)-5-(2′-chloro-5-(((2-(methoxymethyl)phenyl)amino)methyl)-[1,1′-biphenyl]-2-yl)-6,7,8,9-tetrahydro-5H-imidazo[1,5-a]azepin-6-ol]
AMAX (59M): -68.225 | AMAX (A101D): -76.7398 | AMAX (A172): -55.6841 | AMAX (A549): -65.9191 | AMAX (A2780): -85.074 | AMAX (ABC-1): -77.8125 | AMAX (AM-38): -77.876 | AMAX (AU565): -62.6343 | AMAX (AsPC-1): -59.6849 | AMAX (BFTC-909): -64.2004 | AMAX (BICR 6): -79.1425 | AMAX (BICR 16): -84.074 | AMAX (Calu-6): -81.2731 | AMAX (FaDu): -81.7331 | AMAX (GP2d): -35.7458 | AMAX (HARA): -63.4816 | AMAX (HCC1143): -57.1762 | AMAX (HCC1187): -75.8993 | AMAX (HCC1954): -88.6962 | AMAX (HD-MY-Z): -86.2175 | AMAX (HEC-151): -65.4188 | AMAX (HEL): -95.954 | AMAX (HL-60): -90.6278 | AMAX (HLC-1): -73.9563 | AMAX (HLE): -90.9124 | AMAX (HLF): -62.5035 | AMAX (HSC-4): -75.9669 | AMAX (HT-29): -64.9206 | AMAX (HUP-T4): -81.3707 | AMAX (Hep3B): -76.5642 | pEC50 (59M): 5.58 | pEC50 (92.1): 5.41 | pEC50 (639-V): 6.14 | pEC50 697: 6.32 | pEC50 (769-P): 4.86 | pEC50 (786-0, 786-O): 5.98 | pEC50 (1321-N1, 1321N1): 5.43 | pEC50 (8505C): 6.08 | pEC50 (A4/Fuk): 6.92 | pEC50 (A101D): 6.43 | pEC50 (A 172, A172): 4.87 | pEC50 (A204, A-204): 6.69 | pEC50 (A498, A-498): 5.85 | pEC50 (A549, A549): 5.85 | pEC50 (A673, A-673): 6.37 | pEC50 (A704, A-704): 5.79 | pEC50 (A2058, A2058): 5.69 | pEC50 (A2780, A2780): 6.55 | pEC50 (A-375, A-375): 6.16 | pEC50 (ABC-1, ABC-1): 6.31 | pEC50 (ACC-MESO-1, ACC-MESO-1): 5.62 | pEC50 (AM-38, AM-38): 6.01 | pEC50 (AML-193): 5.49 | pEC50 (AN3-CA, AN3 CA): 5.65 | pEC50 (ASPC1, AsPC-1): 5.32 | pEC50 (AU565, AU565): 5.87 | pEC50 (BC-3C): 5.69 | pEC50 (BEN): 4.90 | pEC50 (BFTC-909, BFTC-909): 5.12 | pEC50 (BICR 6): 5.96 | pEC50 (BICR 16): 5.99 | pEC50 (BICR 31): 5.92 | pEC50 (BT-16, BT-16): 5.48 | pEC50 (BT-549, BT-549): 6.53 | pEC50 (BXPC-3, BxPC-3): 5.22 | pEC50 (C3A): < 4.52 | pEC50 (C32, C32): 6.08 | pEC50 (CAKI-1, Caki-1): 6.07 | pEC50 (CAKI-2, Caki-2): 5.52 | pEC50 (CAL-12T): 6.32 | pEC50 (CAL-27, CAL 27): 6.15 | pEC50 (CAL-29): 5.24 | pEC50 (CAL-54, CAL-54): 5.93 | pEC50 (CAL-85-1, CAL-85-1): 5.10 | pEC50 (CAL-120, CAL-120): 5.17 | pEC50 (CAL-148, CAL-148): 5.77 | pEC50 (CAMA-1, CAMA-1): 4.69 | pEC50 (CAPAN-1, Capan-1): 6.19 | pEC50 (CAS-1): 6.15 | pEC50 (CCRF-HSB-2, CCRF-HSB-2): 6.82 | pEC50 (CEM/C1, CEMC1): 6.46 | pEC50 (CFPAC-1, CFPAC-1): 5.45 | pEC50 (CL-14): < 4.52 | pEC50 (CL-34): 5.41 | pEC50 (CMK): 5.74 | pEC50 (CMK-86, CMK-86): 5.76 | pEC50 (COLO 201, COLO 201): 5.95 | pEC50 (COLO 205, COLO 205): 4.90 | pEC50 (COLO 320, COLO-320): 5.86 | pEC50 (COLO 699, COLO-699): 5.52 | pEC50 (COLO 704, COLO-704): 6.20 | pEC50 (COLO-678, COLO-678): 5.47 | pEC50 (COLO-679, COLO-679): 6.31 | pEC50 (COLO-741, COLO 741): 5.87 | pEC50 (COLO-829, COLO 829): 4.97 | pEC50 (COR-L23, COR-L23): 4.93 | pEC50 (COR-L105, COR-L105): 5.31 | pEC50 (COV362, COV362): 5.05 | pEC50 (COV644): 5.98 | pEC50 (CW-2, CW-2): 5.31 | pEC50 (Calu-1, Calu-1): 4.89 | pEC50 (Calu-6, Calu-6): 6.27 | pEC50 (ChaGo-K-1, ChaGo-K-1): 6.01 | pEC50 (Ci-1, CI-1): 6.71 | pEC50 (DAN-G): 4.87 | pEC50 (DB): 6.54 | pEC50 (DLD-1, DLD-1): < 4.52 | pEC50 (DMS-53, DMS 53): 5.06 | pEC50 (DMS-153, DMS 153): 6.39 | pEC50 (DMS-273, DMS 273): 6.16 | pEC50 (DU-4475, DU4475): 6.66 | pEC50 (Daoy): 6.27 | pEC50 (Detroit 562, Detroit 562): 5.40 | pEC50 (EBC-1, EBC-1): 5.25 | pEC50 (EOL1, EOL-1): 6.58 | pEC50 (FaDu): 6.26 | pEC50 (Fu97, FU97): 6.03 | pEC50 (G-401, G-401): 6.40 | pEC50 (G-402, G-402): 5.39 | pEC50 (GAMG): 5.53 | pEC50 (GB-1, GB-1): 5.41 | pEC50 (GDM-1, GDM-1): 6.79 | pEC50 (GI-1, GI-1): 5.49 | pEC50 (GP2d): < 4.52 | pEC50 (H4): 6.10 | pEC50 (HARA): 5.04 | pEC50 (HCC15, HCC-15): 5.28 | pEC50 (HCC44, HCC-44): 5.62 | pEC50 (HCC70, HCC70): 5.63 | pEC50 (HCC78, HCC-78): 5.64 | pEC50 (HCC95, HCC-95): 4.74 | pEC50 (HCC827, HCC827): 5.75 | pEC50 (HCC1143, HCC1143): 5.22 | pEC50 (HCC1187, HCC1187): 5.12 | pEC50 (HCC1588, HCC-1588): 6.38 | pEC50 (HCC1806, HCC1806): 5.26 | pEC50 (HCC1954, HCC1954): 5.66 | pEC50 (HCC4006, HCC4006): 5.76 | pEC50 (HCC-56): 6.38 | pEC50 (HCC-1359): 5.73 | pEC50 (HCC-1833): 5.47 | pEC50 (HCT-15, HCT-15): 5.87 | pEC50 (HD-MY-Z): 6.27
